Our source for the MIC values is patent US20020164266A1, “Microbicidal mixtures” (priority 2001, published 2002).

Holding throughout (type): cell-based
The subject of one assay is Bacillus subtilis. The assay can be described thus: Synergism (BNPD/MIT), MIC values for Bacillus subtilis. The note with it: read-out: MIC values for Bacillus subtilis. An excerpt: (§1) The mixtures according to the invention have synergistic activity. The observed synergism can be determined by the following mathematical equation (see F. C. Kull, P. C. Elisman, H. D. Sylwestrowicz and P. K. Mayer, Appl. Microbiol. 9, 538 (1961): [formula]
(§2) Qa=the amount of component A in the active compound mixture which achieves the desired effect, i.e. no microbial growth.
(§3) QA=the amount of component A which, when used on its own, suppresses the growth of the microorganisms.
(§4) Qb=the amount of component B in the active compound mixture which suppresses the growth of the micoorganisms.
(§5) QB=the amount of component B which, when used on its own, suppresses the growth of the microorganisms.
(§6) A synergistic index of SI<1 indicates a synergistic effect for the mixture in question. […] All parts and percentages are by weight unless otherwise indicated.
Test pathogen: Bacillus subtilis
(§7) In brackets=mixing ratios of the pure active compounds

For another assay, the system named is Pseudomonas fluorescens. The assay can be described thus: Synergism (BNPD/MIT), MIC values for Pseudomonas fluorescens. Particulars: read-out: MIC values for Pseudomonas fluorescens.
Source text: as §1, §2, §3, §4, §5, §6
Test pathogen: Pseudomonas fluorescens
as §7

The test system of the next assay is Pseudomonas aeruginosa. The assay can be described thus: Synergism (BNPD/MIT), MIC values for Pseudomonas aeruginosa. Particulars: read-out: MIC values for Pseudomonas aeruginosa.
Source text: as §1, §2, §3, §4, §5, §6
Test pathogen: Pseudomonas aeruginosa
as §7

In the case of `O=[N+]([O-])C(Br)(CO)CO` [BNPD, 2-bromo-2-nitropropanediol], the MIC in the assay on Bacillus subtilis, in the assay on Pseudomonas fluorescens and in the assay on Pseudomonas aeruginosa was 10 µg/mL throughout.
For `Cn1sccc1=O` [MIT, 2-methyl-2H-isothiazol-3-one], the MIC – broadly, the smallest concentration in the dilution series that meets the test's criterion for growth inhibition – in the assay on Bacillus subtilis turned out to be 25 µg/mL; in the assay with Pseudomonas fluorescens, 10 µg/mL; in the assay on Pseudomonas aeruginosa it was 10 µg/mL.
